Measurements as given in patent US20240285528A1, “NANO-MOLECULE AGGREGATE CONSISTING OF ORGANIC MATERIAL, INORGANIC MATERIAL OR SALT THEREOF AND PREPARATION METHOD THEREFOR” (SCAI THERAPEUTICS CO., LTD., priority 2021, published 2024).

Test: Aqueous solubility (dispersity) by HPLC after stirring and filtration
Type: physicochemical
Settings: water, stirred at 25° C. for 10 hours, 0.2 micron filter

Compound	Aqueous solubility (dispersity)
Nc1ncnc2c1ncn2[C@@H]1O[C@H](CO)[C@@H](O)[C@H]1O [Adenosine, adenosine]	0.27 % (wt/v)
CC(=O)Oc1cc2c(cc1Cl)C(c1ccccc1C(=O)O)c1cc(Cl)c(OC(C)=O)cc1O2 [DCF-DA, 2′, 7′-dichlorofluorescin diacetate]	0.004 % (wt/v)
C=C1CCN([C@H](C)[C@](O)(Cn2cncn2)c2ccc(F)cc2F)CC1 [Epinaconazole, epinaconazole]	0.321 % (wt/v)

Now from value to molecule:

Aqueous solubility (dispersity)	Compound
0.0033 % (wt/v)	O=C(Nc1ccc([N+](=O)[O-])cc1Cl)c1cc(Cl)ccc1O [Niclosamide, niclosamide]
7.6 % (wt/v)	C=CC[C@@H]1/C=C(\C)C[C@H](C)C[C@H](OC)[C@H]2O[C@@](O)(C(=O)C(=O)N3CCCC[C@H]3C(=O)O[C@H](/C(C)=C/[C@@H]3CC[C@@H](O)[C@H](OC)C3)[C@H](C)[C@@H](O)CC1=O)[C@H](C)C[C@@H]2OC [Tacrolimus, tacrolimus]
